“Also recorded” adds a separate entry of the source.
How the values were obtained:
[1] = system: CD42b; conditions: reported; cited from earlier work
[2] = system: MKs derived from HA-iPS; assay: Platelet generation from MKs under constant shear force in a microfluidic device; format: cell-based, human
Procedure: Matured MKs, derived from HA-iPS and MA09 hES lines, were used. Equal numbers of MKs suspended in MK-specific medium were loaded into a microfluidic device in the presence or absence of 20 μM MMP inhibitor GM6001. Constant shear force was applied to the MKs throughout the culture period. MK-medium downstream of MKs was collected at 30 minute intervals for a period of 6 hours. Platelet number and purity (i.e., percentage of total cells that are CD41a^+CD42b^+) in the collected media were measured using flow cytometer.
FIGS. 22-24 provide the results of platelet generation from MKs derived from HA-iPS. The platelets were generated under a constant shear force defined by a flow rate of […] μl/min. […] Purity is expressed at the percentage of total harvested cells that are CD41a+CD42b+.

[3] = system: iPS derived megakaryocytes; assay: Platelet formation in static culture with MMP inhibitors; format: cell-based, human
From the text: FIG. 27. Platelet purity as a result of static culture in the presence of MMP8 specific inhibitor MMP8-I (second bar), pan-MMP inhibitor GM6001 (third bar), or the combination of MMP8-I and GM6001 (fourth bar). The MMP8-I is (3R)-(+)-[2-(4-Methoxybenzenesulfonyl)-1,2,3,4-tetrahydroisoquinoline-3-hydroxamate], and it is commercially available from Millipore. The first bar is the control.
FIG. 28. Platelets numbers as a result of static culture in the presence of MMP8 specific inhibitor MMP8-I (second bar), pan MMP inhibitor GM6001 (third bar), or the combination of MMP8-I and GM6001 (fourth bar). The first bar is the control.
The peak of platelet production is determined by measuring platelet content in the culture, for example on a daily basis for several days. It is typically 4-7 days after the beginning of the MLP differentiation culture period, although it may be longer or it may be shifted.

[4] = system: c-myc; assay: Relative quantitative mRNA analysis on day 6+4; format: cell-based, human; conditions: 0.1 and 0.25 microM
From the text: (§1) FIG. 32. Relative quantitative analysis of mRNA of c-myc and GATA-1 on day 6+4 as a function of increasing dose of iBET-151. iBET concentrations: 0 (left bar), 0.1 microM (middle bar), 0.25 microM (right bar) for each triplet.

[5] = system: GATA-1; assay: Relative quantitative mRNA analysis on day 6+4; format: cell-based, human; conditions: 0.1 and 0.25 microM
From the text: as §1

[6] = system: cells undergoing in vitro megakaryopoiesis; assay: iBET-151 in PVE-HE to MLP differentiation culture, harvest at day 6+4; format: cell-based, human
Procedure: Megakaryocyte progenitor (MLP) numbers harvested at day 6+4 (i.e., day 10 of differentiation) as a function of increasing dose of iBET-151 (in μM). iBET is added to the culture at the 6+3 day time frame, and MLPs are exposed to iBET for a period of about 24 hours prior to their harvest. iBET concentrations: 0 (left bar), 0.1 microM (middle bar), 0.25 microM (right bar). […] CD14+ cell purity in cell population harvested at day 6+4 as a function of increasing dose of iBET-151. iBET concentrations: 0 (left bar), 0.1 microM (middle bar), 0.25 microM (right bar).

[7] = system: human and murine MLL-fusion leukemic cell lines; conditions: through induction of early cell cycle arrest and apoptosis; cited from earlier work
[8] = system: developing mouse platelet thrombus; assay: In vivo thrombus formation after laser-induced cremaster arteriolar wall injury, intravital microscopy; set-up: species or system macrophage-depleted NOD/SCID mice; conditions: platelets pretreated with ReoPro
Procedure: Third, hiPSC-PLTs were analyzed for functionality using an in vivo assay system measuring thrombus formation in macrophage-depleted NOD/SCID mice. Briefly, intravital microscopy of cremaster muscle arterioles was performed as previously described (Cell Research 2011 21:530-45). Macrophage-depleted NOD/SCID mice were anesthetized by intraperitoneal injection of ketamine (125 mg/kg) and xylazine (25 mg/kg). A tracheal tube was inserted and the mouse was placed on a thermo-controlled blanket. After incision of the scrotum, the cremaster muscle was exteriorized onto an intravital microscopy tray. The muscle preparation was superfused with thermo-controlled (37° C.) and aerated (95% N2, 5% CO2) bicarbonate-buffered saline throughout the experiment. The cremaster muscle arteriolar wall was injured by micropoint laser ablation using a Micropoint Laser System (Photonics Instruments). […] Fluorescence and brightfield images were recorded using an Olympus BX61W microscope with a 60 x/1.0 NA water immersion objective and a high speed camera (Hamamatsu C9300) through an intensifier (Video Scope International). Data were collected for 5 min following vessel wall injury and analyzed using Slidebook v5.0 (Intelligent Imaging Innovations).

## CNC(=O)[C@H](Cc1c[nH]c2ccccc12)NC(=O)[C@@H](CC(=O)NO)CC(C)C [GM6001]
[1]
  CD42b shedding from platelets: inhibit CD42b shedding
[2]; 20 μM, added at beginning of culture, constant shear force, vs DMSO
  platelet purity (percentage of total harvested cells that are CD41a+CD42b+): significantly improved
[2]; 20 μM, constant shear force, vs DMSO
  platelet yield / platelet numbers: significantly improved; also recorded: significantly more platelets

## COc1ccc(S(=O)(=O)N2Cc3ccccc3C[C@@H]2C(=O)NO)cc1 [MMP8 specific inhibitor, (3R)-(+)-[2-(4-Methoxybenzenesulfonyl)-1,2,3,4-tetrahydroisoquinoline-3-hydroxamate]]
[3]; added at peak of platelet production of MKs, static culture, control 43.7%
  purity of iPS-derived platelets (CD41a+CD42b+): 65.5%
[3]; comparative study of several specific MMP inhibitors
  potency in protecting platelet function: more potency than GM6001
[3]; static culture
  CD41a+CD42b+ platelets produced, compared to GM6001: Significantly more
  purity, more than obtained from GM6001-treated cultures: approximately 10%

## COc1cc2c(cc1-c1c(C)noc1C)ncc1[nH]c(=O)n([C@H](C)c3ccccn3)c12 [i-BET-151]
[4]
  c myc gene expression (mRNA): dose:-dependent inhibition
[5]
  GATA1 gene expression (mRNA): up-regulated
[6]; 0.1 and 0.25 microM, day 6+4
  number of CD14+ myeloid cells: dose-dependent decrease
[6]; high dose
  apoptosis: triggers massive apoptosis
[6]; lower doses in the micromolar (or submicromolar) range, 0.1 and 0.25 microM, about 24 hours
  numbers of MK progenitors: increased numbers
[7]
  efficacy against MLL-fusion leukemic cell lines: profound efficacy

## dextran
[2]; 8% dextran added to increase viscosity of culture medium, with GM6001, shear force
  platelet formation: negative impact

B1: ReoPro: Fab fragment of a human-murine chimeric monoclonal antibody that binds specifically to αIIbβIII and inhibits platelet function (antibody, chains of the INN, looked up, V domains shown)
VH: EVQLQQSGTVLARPGASVKMSCEASGYTFTNYWMHWVKQRPGQGLEWIGAIYPGNSDTSYIQKFKGKAKLTAVTSTTSVYMELSSLTNEDSAVYYCTLYDGYYVFAYWGQGTLVTVSA
VL: EIVLTQSPVTLSVTPGDSVSLSCRASRDISNNLHWFQQTSHESPRLLIKYASQSMSGIPSRFSGSGSGTDFTLSINSVETEDFGMYFCQQTNSWPYTFGGGTKLEIK
modifications: Fab
[8]
  number of platelets bound to / incorporating in the thrombus after ReoPro pretreatment: inhibited; also recorded: markedly reduced
